# Results: article PMC6482412, “Studies on spiro[4.5]decanone prolyl hydroxylase domain inhibitors” (MedChemComm, 2019)
# Target: factor inhibiting HIF (FIH) (Homo sapiens, UniProt Q9NWT6)
# Experiment: FIH selectivity assay with HIF-1α CAD peptide D788-L822, RapidFire-MS
# Type: biochemical
# Conditions: isolated FIH, Table S2
# Description: (§1) We carried out initial studies on the selectivity of the spiro[4.5]decanone series.
# (§2) Supplementary Information
# (§3) Table S2: Studies on the selectivity of spiro[4.5]decanone containing inhibitors.
# (§4) Compounds were screened against FIH with the HIF-1α CAD peptide D788 - L822 and
# (§5) KDM4A with H3(1 - 15) K9Me3. Both assays employed the RapidFire-MS sampling
# (§6) machine. See Experimental Methods for details. 2 […]
# factor inhibiting HIF (FIH), sequence (Q9NWT6 whole entry): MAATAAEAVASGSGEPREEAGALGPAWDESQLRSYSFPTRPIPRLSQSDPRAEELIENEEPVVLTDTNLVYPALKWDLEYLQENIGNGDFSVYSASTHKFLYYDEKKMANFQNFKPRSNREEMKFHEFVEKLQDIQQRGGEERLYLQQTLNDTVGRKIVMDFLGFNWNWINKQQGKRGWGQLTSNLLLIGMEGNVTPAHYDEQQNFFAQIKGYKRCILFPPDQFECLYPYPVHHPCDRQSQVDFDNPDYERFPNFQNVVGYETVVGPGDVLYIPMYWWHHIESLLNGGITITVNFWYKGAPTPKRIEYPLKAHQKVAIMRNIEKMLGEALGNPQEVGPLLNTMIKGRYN
row,Compound,FIH inhibition (in words)
1,COc1ccnc(N2C(=O)N(c3ccc(-c4ccccc4)cc3)C(=O)C23CCN(Cc2ncccc2C)CC3)n1 [Compound 26],weak

# Target: T1, KDM4A (Homo sapiens, UniProt O75164)
# T1 sequence (O75164 1-1064): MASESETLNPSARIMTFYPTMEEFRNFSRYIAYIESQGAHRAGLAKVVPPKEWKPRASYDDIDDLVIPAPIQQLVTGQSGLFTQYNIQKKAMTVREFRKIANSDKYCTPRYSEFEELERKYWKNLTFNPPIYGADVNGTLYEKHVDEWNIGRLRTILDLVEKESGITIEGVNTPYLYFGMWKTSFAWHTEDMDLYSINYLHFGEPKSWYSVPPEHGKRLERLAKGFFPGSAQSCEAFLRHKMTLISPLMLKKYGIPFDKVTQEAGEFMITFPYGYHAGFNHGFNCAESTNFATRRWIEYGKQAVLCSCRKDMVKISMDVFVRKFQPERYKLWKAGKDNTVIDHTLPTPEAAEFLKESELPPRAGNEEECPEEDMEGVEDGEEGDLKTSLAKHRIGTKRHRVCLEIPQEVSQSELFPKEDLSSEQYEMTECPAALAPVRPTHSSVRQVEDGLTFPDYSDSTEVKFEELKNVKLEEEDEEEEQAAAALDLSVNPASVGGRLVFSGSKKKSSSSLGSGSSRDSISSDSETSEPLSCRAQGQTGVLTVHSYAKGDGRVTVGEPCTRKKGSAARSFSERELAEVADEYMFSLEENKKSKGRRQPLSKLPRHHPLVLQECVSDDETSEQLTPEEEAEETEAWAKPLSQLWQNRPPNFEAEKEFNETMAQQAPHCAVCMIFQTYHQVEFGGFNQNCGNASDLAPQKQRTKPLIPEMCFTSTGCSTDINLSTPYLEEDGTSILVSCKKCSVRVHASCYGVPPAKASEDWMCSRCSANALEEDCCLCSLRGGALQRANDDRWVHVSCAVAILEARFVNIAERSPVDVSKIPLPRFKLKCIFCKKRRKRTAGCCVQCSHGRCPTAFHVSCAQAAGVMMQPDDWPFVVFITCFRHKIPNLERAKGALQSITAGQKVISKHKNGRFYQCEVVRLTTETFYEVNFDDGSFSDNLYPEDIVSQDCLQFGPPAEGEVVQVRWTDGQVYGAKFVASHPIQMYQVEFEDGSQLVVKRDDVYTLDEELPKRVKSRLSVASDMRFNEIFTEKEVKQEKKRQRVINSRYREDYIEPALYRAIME
# Experiment: KDM4A selectivity assay with H3(1-15) K9Me3, RapidFire-MS
# Type: biochemical
# Conditions: isolated KDM4A, Table S2
# Description: as §1, §2, §3, §4, §5, §6
row,Compound,KDM4A inhibition (in words)
1,Cc1cccnc1CN1CCC2(CC1)C(=O)N(c1ccc(-c3ccccc3)cc1)C(=O)N2c1ncccn1 [Compound 11],weak
2,Cn1ccnc1CN1CCC2(CC1)C(=O)N(c1ccc(-c3ccccc3)cc1)C(=O)N2c1ncccn1 [Compound 14],weak

# Target: T2, tPHD2 (PHD2 181-426) with HIF-1α NODD (Homo sapiens, UniProt Q9GZT9)
# T2 construct: catalytic domain of truncated PHD2 (tPHD2, residues 181–426); His6 (N, cleaved yes); made in house; host or cells: E. coli BL21 DE3
# T2 sequence (Q9GZT9 181-426): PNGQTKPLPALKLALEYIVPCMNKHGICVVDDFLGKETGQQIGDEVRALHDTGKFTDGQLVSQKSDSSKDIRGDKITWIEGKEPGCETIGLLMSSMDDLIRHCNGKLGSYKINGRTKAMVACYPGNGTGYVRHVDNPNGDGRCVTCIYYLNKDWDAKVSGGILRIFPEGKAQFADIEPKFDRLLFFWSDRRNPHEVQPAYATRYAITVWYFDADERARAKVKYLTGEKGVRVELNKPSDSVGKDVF
# Experiment: RapidFire-MS PHD2 hydroxylation assay, HIF-1α NODD peptide substrate
# Type: biochemical
# Conditions: not given
# Protocol: (§7) 11–16 were then assayed using mass spectrometry (MS) for inhibition of the catalytic domain of truncated PHD2 (tPHD2, residues 181–426) and (in selected cases) PHD3, employing either human HIF-1α CODD or NODD peptide sequences (Table 1).
# as §2
# (§8) RapidFire-MS PHD2 hydroxylation assays
# (§9) Inhibition of PHD2 enzyme activity was assessed by mass spectrometry. The enzyme assay monitors tPHD2181-426 catalysed turnover of a C-terminal oxygenase […]
# (§10) C-terminal amide) and appearance of the hydroxylated peptide product
# (§11) (hydroxylation of proline 564) with a typical incubation time of 15 minutes.2 Assays were performed in 50 mM Tris.Cl pH 7.8, 50 mM NaCl, titrations of compounds for […]
# (§12) ECHO 550 acoustic dispenser (Labcyte) and dry dispensed into 384-well polypropylene assay plates. The final assay concentration of DMSO was kept constant at 0.5% (v/v). tPHD2181-426 was at a concentration of 300 nM in the assay buffer (20 μM ferrous iron sulfate, 200 μM L-ascorbic acid, 10 μM CODD or NODD peptide and 20 μM 2-oxoglutarate) and 25 μl was dispensed across each 384-well assay plate. tPHD2181-426 was allowed to equilibrate with compounds for 15 minutes; the reaction was then initiated by addition of 25 μl of substrate.2 Enzyme reactions were allowed to proceed for 15 minutes and the reaction terminated by addition of 10% (v/v) formic acid (5 μl). Assay plates were then transferred to a RapidFire RF360 sampling robot (Agilent) connected to an Agilent 6530 quadrupole-time-of-flight (Q-TOF) mass spectrometer. Assay samples were aspirated under vacuum and loaded onto a C4 solid phase extraction (SPE) cartridge. After loading, the C4 SPE cartridge was washed with 0.1 % (v/v) formic acid in water to remove non-volatile buffer salts.
# (§13) The peptide was then eluted from the SPE with 85% acetonitrile, 15% water containing 0.1% (v/v) formic acid into the mass spectrometer. Peptide charge states were monitored in the positive ion mode. Ion chromatogram data were extracted for […]
# (§14) the +2 charge state and peak area data integrated using RapidFire Integrator software (Agilent). The % conversion of the CODD peptide substrate to the +16 hydroxylated peptide was calculated using the equation: […]
# (§15) data were determined from non-linear regression plots using GraphPad prism 6.0.
# (§16) All data were normalized to a no enzyme control.2
row,Compound,IC50 [nM]
1,O=C1N(c2ccc(-c3ccccc3)cc2)C(=O)C2(CCN(Cc3ccccc3O)CC2)N1c1ncccn1 [Compound 13],> 25000
2,Cn1ccnc1CN1CCC2(CC1)C(=O)N(c1ccc(-c3ccccc3)cc1)C(=O)N2c1ncccn1 [Compound 14],49 ± 5

# Same assay, conditions: tPHD2 181-426, HIF-1α NODD peptide, RapidFire MS, standard error of the mean (n = 3); read-out: PHD2 with HIF1-α NODD IC50
row,Compound,IC50 [nM]
1,O=C1N(c2ccc(-c3ccccc3)cc2)C(=O)C2(CCNCC2)N1c1ncccn1 [Compound 10],> 25000
2,O=C1N(c2ccc(-c3ccccc3)cc2)C(=O)C2(CCN(Cc3cccs3)CC2)N1c1ncccn1 [Compound 12],> 25000
3,O=C1N(c2ccc(-c3ccccc3)cc2)C(=O)C2(CCN(Cc3ncc[nH]3)CC2)N1c1ncccn1 [Compound 15],70 ± 21
4,COc1cccc(CN2CCC3(CC2)C(=O)N(c2ccc(-c4ccccc4)cc2)C(=O)N3c2ncccn2)n1 [Compound 16],905 ± 417
5,Cn1ccnc1CN1CCC2(CC1)NC(=O)N(c1ccc(-c3ccccc3)cc1)C2=O [Compound 24],63 ± 16
6,COc1ccnc(N2C(=O)N(c3ccc(-c4ccccc4)cc3)C(=O)C23CCN(Cc2ncccc2C)CC3)n1 [Compound 26],55 ± 15
7,Cc1cccnc1CN1CCC2(CC1)C(=O)N(c1ccc(-c3ccccc3)cc1)C(=O)N2c1cc(C(=O)O)ccn1 [Compound 27],94 ± 32

# Target: T3, tPHD2 (PHD2 181-426) with HIF-1α CODD (Homo sapiens, UniProt Q9GZT9)
# T3 construct: catalytic domain of truncated PHD2 (tPHD2, residues 181–426); His6 (N, cleaved yes); made in house; host or cells: E. coli BL21 DE3
# T3 sequence (Q9GZT9 181-426): as above
# Experiment: RapidFire-MS PHD2 hydroxylation assay, HIF-1α CODD peptide substrate
# Type: biochemical
# Conditions: not given
# Protocol: as §7, §2, §8, §9, §10, §11, §12, §13, §14, §15, §16
row,Compound,IC50 [nM]
1,O=C1N(c2ccc(-c3ccccc3)cc2)C(=O)C2(CCN(Cc3ccccc3O)CC2)N1c1ncccn1 [Compound 13],> 25000
2,Cn1ccnc1CN1CCC2(CC1)C(=O)N(c1ccc(-c3ccccc3)cc1)C(=O)N2c1ncccn1 [Compound 14],143 ± 97

# Same assay, conditions: tPHD2 181-426, HIF-1α CODD peptide, RapidFire MS, standard error of the mean (n = 3); read-out: PHD2 with HIF1-α CODD IC50
row,Compound,IC50 [nM]
1,O=C1N(c2ccc(-c3ccccc3)cc2)C(=O)C2(CCNCC2)N1c1ncccn1 [Compound 10],> 25000
2,O=C1N(c2ccc(-c3ccccc3)cc2)C(=O)C2(CCN(Cc3cccs3)CC2)N1c1ncccn1 [Compound 12],> 25000
3,O=C1N(c2ccc(-c3ccccc3)cc2)C(=O)C2(CCN(Cc3ncc[nH]3)CC2)N1c1ncccn1 [Compound 15],215 ± 19
4,COc1cccc(CN2CCC3(CC2)C(=O)N(c2ccc(-c4ccccc4)cc2)C(=O)N3c2ncccn2)n1 [Compound 16],1210 ± 226
5,Cn1ccnc1CN1CCC2(CC1)NC(=O)N(c1ccc(-c3ccccc3)cc1)C2=O [Compound 24],151 ± 35
6,COc1ccnc(N2C(=O)N(c3ccc(-c4ccccc4)cc3)C(=O)C23CCN(Cc2ncccc2C)CC3)n1 [Compound 26],289 ± 11
7,Cc1cccnc1CN1CCC2(CC1)C(=O)N(c1ccc(-c3ccccc3)cc1)C(=O)N2c1cc(C(=O)O)ccn1 [Compound 27],380 ± 64

# Same assay, conditions: tPHD2, HIF-1α CODD substrate
row,Compound,tPHD2 inhibition (in words)
1,O=C1N(c2ccc(-c3ccccc3)cc2)C(=O)C2(CCN(Cc3cccs3)CC2)N1c1ncccn1 [Compound 12],inactive
2,O=C1N(c2ccc(-c3ccccc3)cc2)C(=O)C2(CCN(Cc3ccccc3O)CC2)N1c1ncccn1 [Compound 13],inactive
3,Cn1ccnc1CN1CCC2(CC1)C(=O)N(c1ccc(-c3ccccc3)cc1)C(=O)N2c1ncccn1 [Compound 14],maintained potent inhibition
4,O=C1N(c2ccc(-c3ccccc3)cc2)C(=O)C2(CCN(Cc3ncc[nH]3)CC2)N1c1ncccn1 [Compound 15],maintained potent inhibition

# Target: PHD3 (Homo sapiens, UniProt Q9H6Z9)
# Sequence (Q9H6Z9 whole entry): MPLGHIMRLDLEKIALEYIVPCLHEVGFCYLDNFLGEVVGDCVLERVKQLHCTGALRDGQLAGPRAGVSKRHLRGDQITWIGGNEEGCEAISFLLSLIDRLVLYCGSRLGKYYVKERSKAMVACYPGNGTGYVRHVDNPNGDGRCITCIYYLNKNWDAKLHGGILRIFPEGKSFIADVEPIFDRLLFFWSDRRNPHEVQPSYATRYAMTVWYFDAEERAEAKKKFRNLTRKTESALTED
# Experiment: PHD3 catalysed HIF-1α CODD hydroxylation, RapidFire mass spectrometry
# Type: biochemical
# Conditions: not given
# Protocol: as §7, §1
row,Compound,IC50 [nM]
1,Cc1cccnc1CN1CCC2(CC1)NC(=O)N(c1ccc(-c3ccccc3)cc1)C2=O [Compound 23],1050 ± 40
2,Cn1ccnc1CN1CCC2(CC1)NC(=O)N(c1ccc(-c3ccccc3)cc1)C2=O [Compound 24],219 ± 25
